Patent publication US20250313548A1 (Actio Biosciences, Inc., priority 2023, published 2025)

Biological target: human, KCNT1 (Homo sapiens (Human), UniProt Q5JUK3)
Test: FLIPR Tl/K Flux Assay
Type: cell-based
Conditions: HEK293 cells stably expressing human KCNT1; Tl+ flux stimulated with EC80 of agonist Loxapine
Method: HEK293 cells stably expressing human, KCNT1 were cultured in DMEM, 10% FBS, 100 U/mL penicillin-streptomycin and […] puromycin for selection purposes. One day before the assay, cells were detached using TrypLE™ Express and counted using a cell counter. Only cells with >85% viability were used for the assay. […] The cells were incubated overnight at 37° C., 5% (v/v) CO2.
On the day of the assay, the reagents were prepared following the FLIPR® Potassium Assay Kit manual: prepare 2× dye solution, dilute the dye with assay buffer (20 mM HEPES in 1× HBSS, PH7.4), addition of probenecid to a final concentration of 5 mM, and vortexed vigorously for 1-2 minutes. The cell plate was flicked to remove medium and tapped on paper towels to remove excess media. […] The cell plate was moved to a plate shaker, agitated at 600 rpm for two minutes, and then incubated at 25° C. for one hour.
The compounds were prepared in DMSO and transferred to a 384-well compound plate (PP, low binding), referred to as a source plate. Reference agonist (300 nM) compound and test inhibitor (10 mM) compounds were added to the compound plate and a 4-fold serial dilution was performed in DMSO. Using an ECHO dispenser, compounds were dispensed at 90 nL/well from the source plate to a 384-well compound plate (PP, low binding). After the dispensing was complete, 30 µL/well assay buffer was added to the compound plate and mixed for two minutes on a plate shaker. The cell plate, compound plate, and tips were loaded into the FLIPR instrument, and a transfer of 10 μl of 3× compound to the cell plate was initiated. The treated cell plate was kept at in the dark at 25° C. for 30 minutes. Chloride-free stimulation buffer containing 4× 2 mM Tl+ and 4×EC80 of agonist Loxapine was loaded into a 384-well compound plate (PP, low binding). After the 30-minute incubation, the cell plate, compound plate containing stimulation buffer, and FLIPR tips were loaded into the FLIPR instrument. After a baseline read, the FLIPR initiates a transfer of 10 μL of stimulation buffer containing Loxapine to the cell plate. The plate was read for 160 sec with 1 second interval reads to obtain the data.
The normalized fluorescence reading (RFU) was calculated as shown follow, while Fmax and Fmin stand for maximum and minimum of signal during defined time window. The IC50 was calculated by fitting % inhibition against log of compound concentrations with Hill equation using XLfit.

human, KCNT1, sequence (Q5JUK3 whole entry): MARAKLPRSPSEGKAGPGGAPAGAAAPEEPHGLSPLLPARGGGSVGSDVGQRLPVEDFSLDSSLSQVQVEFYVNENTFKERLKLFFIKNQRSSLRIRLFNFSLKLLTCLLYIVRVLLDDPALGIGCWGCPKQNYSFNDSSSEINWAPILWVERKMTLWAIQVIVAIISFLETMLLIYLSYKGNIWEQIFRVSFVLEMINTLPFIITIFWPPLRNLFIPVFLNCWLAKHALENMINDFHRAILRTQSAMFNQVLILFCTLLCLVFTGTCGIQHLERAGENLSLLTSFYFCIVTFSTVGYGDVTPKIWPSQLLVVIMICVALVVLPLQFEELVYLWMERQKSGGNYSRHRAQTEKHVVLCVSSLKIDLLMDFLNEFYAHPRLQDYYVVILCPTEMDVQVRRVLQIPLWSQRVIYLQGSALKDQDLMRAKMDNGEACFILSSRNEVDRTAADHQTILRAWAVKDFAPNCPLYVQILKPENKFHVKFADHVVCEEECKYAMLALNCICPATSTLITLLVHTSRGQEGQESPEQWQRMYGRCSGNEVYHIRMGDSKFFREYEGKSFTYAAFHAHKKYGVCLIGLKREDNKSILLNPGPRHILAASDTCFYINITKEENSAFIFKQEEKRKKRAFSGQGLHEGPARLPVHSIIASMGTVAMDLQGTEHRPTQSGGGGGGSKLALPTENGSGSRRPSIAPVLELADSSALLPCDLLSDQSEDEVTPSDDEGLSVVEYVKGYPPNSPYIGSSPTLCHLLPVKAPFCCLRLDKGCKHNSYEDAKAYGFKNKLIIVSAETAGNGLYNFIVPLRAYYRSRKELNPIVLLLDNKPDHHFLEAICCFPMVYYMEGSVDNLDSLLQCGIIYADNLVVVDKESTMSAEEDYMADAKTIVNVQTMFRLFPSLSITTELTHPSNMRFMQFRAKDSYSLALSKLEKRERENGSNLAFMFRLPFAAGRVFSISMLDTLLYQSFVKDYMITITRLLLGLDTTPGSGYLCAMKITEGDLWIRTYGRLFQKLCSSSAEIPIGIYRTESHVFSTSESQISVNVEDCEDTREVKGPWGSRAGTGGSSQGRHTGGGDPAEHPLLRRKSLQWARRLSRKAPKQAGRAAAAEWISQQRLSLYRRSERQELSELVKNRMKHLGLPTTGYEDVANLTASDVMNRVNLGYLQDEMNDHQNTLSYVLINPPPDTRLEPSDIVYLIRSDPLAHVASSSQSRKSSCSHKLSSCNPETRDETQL

An IC50 greater than 1000 nM was found for `Cn1nc(C(F)(F)F)cc1C(=O)N[C@@H]1CCc2nn(-c3ccnc(C(F)(F)F)c3)cc21` [Compound I-1b, (R)-1-Methyl-3-(trifluoromethyl)-N-(2-(2-(trifluoromethyl)pyridin-4-yl)-2,4,5,6-tetrahydrocyclopenta[c]pyrazol-4-yl)-1H-pyrazole-5-carboxamide] in this work.

An IC50 of less than 250 nM was found for `O=C(N[C@H]1CCCc2nn(-c3ccnc(C(F)(F)F)c3)cc21)c1cc(Cl)cc(C(F)(F)F)c1` [Compound I-2a, (S)-3-Chloro-5-(trifluoromethyl)-N-(2-(2-(trifluoromethyl)pyridin-4-yl)-4,5,6,7-tetrahydro-2H-indazol-4-yl)benzamide] in this work.

An IC50 of 500 to 1000 nM was found for `Cn1nc(CC#N)cc1C(=O)N[C@H]1CCCc2nn(-c3ccnc(C(F)(F)F)c3)cc21` [Compound I-3a] in this work.

An IC50 of less than 250 nM was found for `Cn1nc(C(F)(F)F)cc1C(=O)N[C@H]1CCCc2nn(-c3ccnc(C(F)(F)F)c3)cc21` [Compound I-4a, (S)-1-Methyl-3-(trifluoromethyl)-N-(2-(2-(trifluoromethyl)pyridin-4-yl)-4,5,6,7-tetrahydro-2H-indazol-4-yl)-1H-pyrazole-5-carboxamide] in this work.

An IC50 greater than 1000 nM was found for `Cn1nc(C(F)(F)F)cc1C(=O)N[C@@H]1CCCc2nn(-c3ccnc(C(F)(F)F)c3)cc21` [Compound I-4b, (R)-1-Methyl-3-(trifluoromethyl)-N-(2-(2-(trifluoromethyl)pyridin-4-yl)-4,5,6,7-tetrahydro-2H-indazol-4-yl)-1H-pyrazole-5-carboxamide] in this work.

An IC50 of less than 250 nM was found for `O=C(N[C@H]1CCCc2nn(-c3ccnc(C4CC4)c3)cc21)c1cc(Cl)cc(C(F)(F)F)c1` [Compound I-5a] in this work.

An IC50 of less than 250 nM was found for `O=C(N[C@H]1CCCc2nn(-c3ccnc(C(F)(F)F)c3)cc21)c1cc(C(F)(F)F)nn1C1CC1` [Compound I-9a, (S)-1-Cyclopropyl-3-(trifluoromethyl)-N-(2-(2-(trifluoromethyl)pyridin-4-yl)-4,5,6,7-tetrahydro-2H-indazol-4-yl)-1H-pyrazole-5-carboxamide] in this work.

An IC50 greater than 1000 nM was found for `CCOc1cc(-n2cc3c(n2)CCCC3NC(=O)c2ccccc2)ccn1` (stereo not drawn) [Compound I-27] in this work.

An IC50 greater than 1000 nM was found for `CN(C(=O)c1cc(C(F)(F)F)nn1C)[C@H]1CCCc2nn(-c3ccnc(C(F)(F)F)c3)cc21` [Compound I-37a, (S)—N,1-Dimethyl-3-(trifluoromethyl)-N-(2-(2-(trifluoromethyl)pyridin-4-yl)-4,5,6,7-tetrahydro-2H-indazol-4-yl)-1H-pyrazole-5-carboxamide] in this work.

An IC50 of less than 250 nM was found for `Cn1nc(C(F)(F)F)cc1C(=O)N[C@H]1CCCn2nc(-c3cnc(C(F)(F)F)s3)cc21` [Compound I-41a, (S)-1-Methyl-3-(trifluoromethyl)-N-(2-(2-(trifluoromethyl)thiazol-5-yl)-4,5,6,7-tetrahydropyrazolo[1,5-a]pyridin-4-yl)-1H-pyrazole-5-carboxamide] in this work.

An IC50 greater than 1000 nM was found for `Cn1nc(C(F)(F)F)cc1C(=O)N[C@@H]1CCCn2nc(-c3ccnc(C(F)(F)F)c3)cc21` [Compound I-42b, (R)-1-Methyl-3-(trifluoromethyl)-N-(2-(2-(trifluoromethyl)pyridin-4-yl)-4,5,6,7-tetrahydropyrazolo[1,5-a]pyridin-4-yl)-1H-pyrazole-5-carboxamide] in this work.

An IC50 greater than 1000 nM was found for `Cn1nc(C(F)(F)F)cc1C(=O)NC1CCc2ccc(-c3ccnc(C(F)(F)F)c3)nc21` (stereo not drawn) [Compound I-43] in this work.

An IC50 of less than 250 nM was found for `Cc1c(-c2ccnc(C(F)(F)F)c2)nn2c1[C@@H](NC(=O)c1cc(C(F)(F)F)nn1C)CCC2` [Compound I-44a] in this work.

An IC50 of less than 250 nM was found for `Cn1nc(C(F)(F)F)cc1C(=O)N[C@H]1CCCCc2nn(-c3ccnc(C(F)(F)F)c3)cc21` [Compound I-45a, (S)-1-methyl-3-(trifluoromethyl)-N-(2-(2-(trifluoromethyl)pyridin-4-yl)-2,4,5,6,7,8-hexahydrocyclohepta[c]pyrazol-4-yl)-1H-pyrazole-5-carboxamide] in this work.

An IC50 greater than 1000 nM was found for `Cn1nc(C(F)(F)F)cc1C(=O)N[C@@H]1CCCCc2nn(-c3ccnc(C(F)(F)F)c3)cc21` [Compound I-45b, (R)-1-methyl-3-(trifluoromethyl)-N-(2-(2-(trifluoromethyl)pyridin-4-yl)-2,4,5,6,7,8-hexahydrocyclohepta[c]pyrazol-4-yl)-1H-pyrazole-5-carboxamide] in this work.

An IC50 of 250 to 500 nM was found for `Cn1nc(C(F)(F)F)cc1C(=O)N[C@H]1CCc2cnc(-c3ccnc(C(F)(F)F)c3)nc21` [Compound I-46a, (S)-1-Methyl-3-(trifluoromethyl)-N-(2-(2-(trifluoromethyl)pyridin-4-yl)-6,7-dihydro-5H-cyclopenta[d]pyrimidin-7-yl)-1H-pyrazole-5-carboxamide] in this work.

An IC50 greater than 1000 nM was found for `Cn1nc(C(F)(F)F)cc1C(=O)N[C@@H]1CCc2cnc(-c3ccnc(C(F)(F)F)c3)nc21` [Compound I-46b, (R)-1-methyl-3-(trifluoromethyl)-N-(2-(2-(trifluoromethyl)pyridin-4-yl)-6,7-dihydro-5H-cyclopenta[d]pyrimidin-7-yl)-1H-pyrazole-5-carboxamide] in this work.

An IC50 of less than 250 nM was found for `Cn1nc(C(F)(F)F)cc1C(=O)N[C@H]1CCCc2nn(-c3ccnc(C4CC4)c3)cc21` [Compound I-48a] in this work.

An IC50 greater than 1000 nM was found for `Cn1nc(C(=O)N[C@H]2CCCc3nn(-c4ccnc(C(F)(F)F)c4)cc32)cc1C(C)(F)F` [Compound I-49a] in this work.

An IC50 of less than 250 nM was found for `Cn1nc(C(F)(F)F)nc1C(=O)N[C@H]1CCCc2nn(-c3ccnc(C(F)(F)F)c3)cc21` [Compound I-50a] in this work.

An IC50 greater than 1000 nM was found for `Cn1nc(C(F)(F)F)cc1C(=O)NC1(C)CCCc2nn(-c3ccnc(C(F)(F)F)c3)cc21` (stereo not drawn) [Compound I-51] in this work.

An IC50 greater than 1000 nM was found for `Cn1nc(C(F)(F)F)cc1CC(=O)N[C@H]1CCCc2nn(-c3ccnc(C(F)(F)F)c3)cc21` [Compound I-53a, (S)-2-(1-Methyl-3-(trifluoromethyl)-1H-pyrazol-5-yl)-N-(2-(2-(trifluoromethyl)pyridin-4-yl)-4,5,6,7-tetrahydro-2H-indazol-4-yl)acetamide] in this work.

An IC50 of less than 250 nM was found for `Cn1nc(C(F)(F)F)cc1C(=O)N[C@H]1CCCCc2nn(-c3ccnc(C4CC4)c3)cc21` [Compound I-56a] in this work.

An IC50 of 500 to 1000 nM was found for `Cn1nc(C(F)(F)F)cc1C(=O)N[C@@H]1CCCCc2nn(-c3ccnc(C4CC4)c3)cc21` [Compound I-56b] in this work.

An IC50 of less than 250 nM was found for `Cc1cccc(C(=O)N[C@H]2CCCCc3nn(-c4ccnc(C5CC5)c4)cc32)c1` [Compound I-58a] in this work.

An IC50 of 500 to 1000 nM was found for `Cc1cccc(C(=O)N[C@@H]2CCCCc3nn(-c4ccnc(C5CC5)c4)cc32)c1` [Compound I-58b] in this work.

An IC50 of less than 250 nM was found for `O=C(N[C@H]1CCCCc2nn(-c3ccnc(C4CC4)c3)cc21)c1cccc(C(F)(F)F)c1` [Compound I-60a] in this work.

An IC50 of 500 to 1000 nM was found for `O=C(N[C@@H]1CCCCc2nn(-c3ccnc(C4CC4)c3)cc21)c1cccc(C(F)(F)F)c1` [Compound I-60b] in this work.

An IC50 of less than 250 nM was found for `Cn1nc(C(F)(F)F)cc1C(=O)N[C@H]1CCCn2nc(-c3ccnc(C4CC4)c3)cc21` [Compound I-64a] in this work.

An IC50 of 500 to 1000 nM was found for `Cn1nc(C(F)(F)F)cc1C(=O)N[C@@H]1CCCn2nc(-c3ccnc(C4CC4)c3)cc21` [Compound I-64b] in this work.

An IC50 of less than 250 nM was found for `O=C(N[C@H]1CCn2nc(-c3ccnc(C4CC4)c3)cc21)c1ccc(C(F)(F)F)nc1` [Compound I-66a] in this work.

An IC50 of less than 250 nM was found for `Cn1nc(C(F)(F)F)cc1C(=O)N[C@H]1CCn2nc(-c3ccnc(C4CC4)c3)cc21` [Compound I-68a] in this work.

An IC50 of 500 to 1000 nM was found for `Cn1nc(C(F)(F)F)cc1C(=O)N[C@@H]1CCn2nc(-c3ccnc(C4CC4)c3)cc21` [Compound I-68b] in this work.
